The subject of one test is MDA-MB231 cells. As to the kind of experiment: MTT cell viability assay on MDA-MB231 cells. As to conditions: MDA-MB231, 48 h, ± S. D. It counts as cell-based, human. The text has this: Human MDA-MB-231 (ER–/PR–/HER2–) and SK-BR-3 (ER–/PR–/HER2+) cells were obtained from American Type Culture Collection (Rockville, MD) and cultured in Dulbecco's Modified Essential Medium (DMEM, Gibco, Life Technologies) supplemented with 10% fetal bovine serum (FBS, Gibco, Life Technologies) and 1% penicillin–streptomycin (Gibco, Life Technologies). A17 cells were established from a spontaneous lobular carcinoma that arose in an FVB/neuT mouse (Galiè et al., [2005]), and maintained in DMEM plus 20% FBS and 1% penicillin-streptomycin. Cells were cultured at 37°C under humidified atmosphere with 5% CO2.
Stock solutions were prepared for each gold(I) compound (50 mM) using dimethyl sulfoxide (DMSO) (Sigma-Aldrich) as solvent. The effects of gold(I) compounds on SKBR3, A17 and MDA-MB231 cells viability were evaluated by seeding, respectively, 10, ^*10^3, 2.5 ^*10^3, 7, ^*10^3 cells/well in 96 wells plates in complete medium (DMEM supplemented with FBS) and compared to those of cisplatin. The day after, fresh medium containing vehicle alone (DMSO, 1 % v/v final concentration) or increasing concentrations of each compound ranging from 0.1 to 100 μM was added. Cell viability was determined using a MTT [3-(4,5-dimethylthiazol-2-yl)-2,5-diphenyl-2H-tetrazolium bromide Sigma Aldrich, St. Louis, MO] assay, which is based on the conversion of MTT to formazan crystals by mitochondrial enzymes, after 24, 48, and 72 h. The formazan deposits were dissolved in DMSO and the absorbance of each well was measured at 540 nm in Multiskan Ascent 96/384 Plate Reader. Each drug concentration was evaluated with 8 replicates and each experiment was repeated three times. At the end of the experiments a dose–response curve was plotted, and the IC50 concentrations were determined. […] Quantitative data are presented as means ± SEM. […]
IC50 values were calculated for each of the cell lines tested, by fitting the concentration-effect curves data obtained in the three experiments with the sigmoid-Emax model using nonlinear regression, weighted by the reciprocal of the square of the predicted effect.

The test system of test [1] is thioredoxin reductase (TrxR). As to conditions: A17, 12 h treatment, 6 μM (maximum inhibition); control 4.95 ± 0.08. Here is the method:
(§1) The assay was performed as previously reported (Galassi et al., [2012]) in 0.2 M Na, K-phosphate buffer (pH 7.4) containing 2 mM EDTA. The assay contained 0.12 mM NADPH and different amounts of cell lysate. The reaction was initiated by the addition of 3 mM 5,5′-dithiobis (2-nitrobenzoic acid) (DTNB) and the increase of absorbance was monitored at 412 nm over 5 min at 25°C.
Fig. 3S. Effects of gold(I) compounds 5 and 6 on redox enzyme thioredoxine reductase in A17 cancer cells. Cells were incubated for 12 hours with different amount of tested compounds 5 and 6. After incubation, cells were washed twice with PBS and lysed. TrxR activity was tested by measuring NADPH-dependent reduction of DTNB (Galassi et al, 2012).

The test system of test [2] is thioredoxin reductase (TrxR). Conditions: MDA-MB231, 12 h treatment, 16 μM (maximum inhibition); control 3.01 ± 0.01. Here is the method:
as §1
Fig. 4S. Effects of gold(I) compounds 5 and 6 on redox enzyme thioredoxine reductase in MDA-MB231 cancer cells. The cells were incubated for 12 hours with different amount of tested compounds 5 and 6. After incubation, cells were washed twice with PBS and lysed. TrxR activity was tested by measuring NADPH-dependent reduction of DTNB (Galassi et al, 2012).

A further test concerns calf thymus DNA (ct-DNA). As to the kind of experiment: UV-Vis absorption titration with ct-DNA. Format: binding. As to conditions: as restated in the discussion. Here is the method: Stock solutions of calf thymus DNA (ct-DNA) (Sigma–Aldrich) were prepared by dissolving the DNA powder overnight in 10 mM Tris–HCl pH 7.4, 10 mM NaCl and incubated under stirrer at 4°C for 12h. […] The concentration of the ct-DNA solution was determined by UV absorbance at 260 nm. The molar absorption coefficient at 260 nm, was taken as 6,600 M^−1 cm^−1 (Marmur, [1961]). Stock solutions of gold(I) complexes (compounds 5 and 6) were prepared in DMSO. Absorption titration experiments performed with fixed concentrations of the different gold(I) complexes (25 μM, in 10 mM Tris–HCl pH 7.4, 10 mM NaCl), gradually increasing the concentration of DNA. After addition of DNA to the compounds, the resulting solution was allowed to […] equilibrate at room temperature for 5 min. Then, the sample solution was scanned in the range 220–600 nm. For the different compounds the binding constant (Kb) was determined from the spectroscopic titration data using the following equation
[DNA]/(εa-εf)=[DNA]/(εb-εf)+1/Kb(εb-εf),Equation 1
where [DNA] is the concentration of DNA in base pairs, the apparent absorption coefficient (εa) was obtained by calculating Aobsd/[compound]. The terms εf and εb correspond to the extinction coefficient of free (unbound) and the fully bound compound, respectively. A plot of [DNA]/(εa-εf) vs. [DNA] will give a slope 1/(εb-εf) and an intercept 1/Kb(εb-εf). […]

The target in test [3] is T1, bovine serum albumin (BSA) (Bos taurus, UniProt P02769).
T1 construct: purchased Sigma Aldrich
T1 sequence (P02769 25-607): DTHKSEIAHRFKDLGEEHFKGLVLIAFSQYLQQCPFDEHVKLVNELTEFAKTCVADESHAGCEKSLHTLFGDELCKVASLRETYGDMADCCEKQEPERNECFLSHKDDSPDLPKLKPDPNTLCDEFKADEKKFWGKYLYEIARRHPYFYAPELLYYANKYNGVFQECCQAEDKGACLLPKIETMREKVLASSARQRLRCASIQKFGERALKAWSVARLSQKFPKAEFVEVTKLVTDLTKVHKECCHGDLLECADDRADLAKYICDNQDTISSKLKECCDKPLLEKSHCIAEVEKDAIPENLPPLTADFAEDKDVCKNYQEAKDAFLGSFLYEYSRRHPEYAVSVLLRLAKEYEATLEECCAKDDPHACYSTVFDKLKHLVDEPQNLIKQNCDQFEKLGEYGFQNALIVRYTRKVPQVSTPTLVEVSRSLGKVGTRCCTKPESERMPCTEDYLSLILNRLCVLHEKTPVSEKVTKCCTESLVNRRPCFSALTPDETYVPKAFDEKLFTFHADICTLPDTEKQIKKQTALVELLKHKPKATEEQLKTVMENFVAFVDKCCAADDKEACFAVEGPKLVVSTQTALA
In words: BSA tryptophan fluorescence quenching. It counts as binding. As to conditions: Stern-Volmer constant, Tris-HCl pH 7.4, room temperature. Here is the method: The protein-binding studies were performed by tryptophan fluorescence quenching experiments using bovine serum albumin (BSA) from Sigma Aldrich prepared in 10 mM Tris-HCl buffer pH 7.4, 10 mM NaCl. The concentration was determined by measuring the absorbance at 280 nm. Assuming a molecular weight of 66,400 and a molar extinction coefficient at 280 nm of 43,824 M^−1 cm^−1. Fluorescence measurements were recorded on a Hitachi 4,500 spectrofluorometer by keeping the concentration of BSA constant (15 × 10^−6 M) while increasing compounds 5 or 6 concentrations (5 mM in DMSO) were added to protein solution at room temperatures. Protein fluorescence intensity was recorded after each successive addition of gold compound solution and equilibration (ca. 5 min). Fluorescence spectra were recorded from 300 to 450 nm at an excitation wavelength of 285 nm. The value of Stern Volmer constants of the different metal complexes to BSA was evaluated following Equation 3 and fluorescent values were corrected by Equation 2.
Protein fluorescence intensity was recorded after each successive addition of complex solution and equilibration (ca. 5 min). Fluorescence spectra were recorded from 300 to 450 nm at an excitation wavelength of 285 nm. The value of Stern Volmer constants of the different metal complexes to BSA were evaluated following the equation 3 and fluorescent values were corrected by equation 2.

Where two headings read alike, the source gives them in different places.

Turning to “4,5-dichloro-imidazolate-1yl-gold(I)-(triphenylphosphane) [Compound 6]”, the IC50 in the test on MDA-MB231 cells came to 3.46 ± 0.29 µM. In addition, the figures for the “Specific enzymatic activity of TrxR” value in test [1] and in test [2] were 4.21 ± 0.09 (6 μM) mU/mg and 1.95 ± 0.06 (16 μM) mU/mg, respectively. In the test on calf thymus DNA (ct-DNA), the “binding constant with ct-DNA” value is 3.44 mM⁻¹. The “BSA Ksv” value in test [3] is listed as 2.04 ± 0.71 10^4 M^−1.
Turning to “4,5-dicyano-imidazolate-1yl-gold(I)-(triphenylphosphane) [Compound 5]”, in the test with MDA-MB231 cells, inhibition was half-maximal at 7.03 ± 0.76 µM (IC50). Moreover, the entries for the “Specific enzymatic activity of TrxR” value in test [1] and in test [2] were 1.84 ± 0.06 (6 μM) mU/mg and 1.59 ± 0.03 (16 μM) mU/mg, respectively. Besides, the “binding constant with ct-DNA” value with calf thymus DNA (ct-DNA) was determined as 1.46 mM⁻¹. For the same substance, in test [3], the “BSA Ksv” value was 2.46 ± 0.82 10^4 M^−1.

The values are drawn from paper PMC7821381, “Multi-Targeted Anticancer Activity of Imidazolate Phosphane Gold(I) Compounds by Inhibition of DHFR and TrxR in Breast Cancer Cells” (Frontiers in Chemistry, 2021).
